Test results taken from patent US20080255060A1, “Ester Linked Macrolides Useful For The Treatment of Microbial Infections” (priority 2004, published 2008).

Columns and labels:
Assay in all cases: MIC, standard microtiter broth serial dilution test
Assay type in all cases: cell-based
[1] = system: S. aureus Smith ATCC 0329; conditions: Staphylococcus aureus, ATCC0329
[2] = system: S. pneumoniae 0541; conditions: Streptococcus pneumoniae
[3] = system: H. influenzae ATCC 0529; conditions: Haemophilus influenzae, ATCC0529
[4] = system: E. faecalis ATCC 0004; conditions: Enterococcus faecalis, ATCC0004
[5] = system: M. catarrhalis ATCC 0324; conditions: Moraxella catarrhalis, ATCC0324
[6] = system: S. pyogenes 0542; conditions: Streptococcus pyogenes

| MIC [1] [µg/mL] | MIC [2] [µg/mL] | MIC [3] [µg/mL] | MIC [4] [µg/mL] | MIC [5] [µg/mL] | MIC [6] [µg/mL] | Compound |
| --- | --- | --- | --- | --- | --- | --- |
| ≤ 1 | ≤ 1 | ≤ 2 | ≤ 1 | ≤ 2 | ≤ 1 | CCOC(=O)c1cn(CC)c2ccc(C#CCN3CCN(CCC(=O)O[C@H]4[C@H](C)OC(O[C@H]5[C@H](C)[C@@H](OC6O[C@H](C)C[C@H](N(C)C)[C@H]6O)[C@](C)(OC)C[C@@H](C)C(=O)[C@H](C)[C@@H](O)[C@](C)(O)[C@@H](CC)OC(=O)[C@@H]5C)C[C@@]4(C)OC)CC3)cc2c1=O (some centres unmarked) [Example 3, 4″-O-(3-{4-[3-(3-Ethoxycarbonyl-1-ethyl-4-oxo-1,4-dihydro-quinolin-6-yl)-prop-2-ynyl]-piperazin-1-yl}-propionyl)-6-O-methyl-erythromycin A] |
| ≤ 1 | ≤ 1 | ≤ 2 | ≤ 1 | ≤ 2 | ≤ 1 | CC[C@H]1OC(=O)[C@H](C)[C@@H](O[C@H]2C[C@@](C)(OC)[C@@H](OC(=O)CCN3CCN(CC#Cc4ccc5c(c4)c(=O)c(C(=O)O)cn5CC)CC3)[C@H](C)O2)[C@H](C)[C@@H](O[C@@H]2O[C@H](C)C[C@H](N(C)C)[C@H]2O)[C@](C)(O)C[C@@H](C)CN(C)[C@H](C)[C@@H](OC)[C@]1(C)O [Example 4] |
| ≤ 1 | ≤ 1 |  | ≤ 1 |  | ≤ 1 | CC[C@H]1OC(=O)[C@H](C)[C@@H](O[C@H]2C[C@@](C)(OC)[C@@H](OC(=O)CCN3CCN(CCCc4ccc5c(c4)c(=O)c(C(=O)O)cn5CC)CC3)[C@H](C)O2)[C@H](C)[C@@H](O[C@@H]2O[C@H](C)C[C@H](N(C)C)[C@H]2O)[C@](C)(O)C[C@@H](C)CN(C)[C@H](C)[C@@H](OC)[C@]1(C)O [Example 5] |
| ≤ 1 | ≤ 1 |  | ≤ 1 |  | ≤ 1 | CC[C@H]1OC(=O)[C@H](C)[C@@H](O[C@H]2C[C@@](C)(OC)[C@@H](OC(=O)CCOCCOCCNc3cc4c(=O)c(C(=O)O)cn(C5CC5)c4cc3Cl)[C@H](C)O2)[C@H](C)[C@@H](O[C@@H]2O[C@H](C)C[C@H](N(C)C)[C@H]2O)[C@](C)(OC)C[C@@H](C)C(=O)[C@H](C)[C@@H](O)[C@]1(C)O [Example 7, 4″-O-(3-{2-[2-(3-Carboxy-7-chloro-1-cyclopropyl-4-oxo-1,4-dihydro-quinolin-6-ylamino)-ethoxy]-ethoxy}-propionyl)-6-O-methyl-erythromycin A] |
| ≤ 1 | ≤ 1 | ≤ 2 | ≤ 1 | ≤ 2 | ≤ 1 | CC[C@H]1OC(=O)[C@H](C)[C@@H](OC2C[C@@](C)(OC)[C@@H](OC(=O)CNC(=O)CCOCCNc3c(F)cc4c(=O)c(C(=O)O)cn(C5CC5)c4c3OC)[C@H](C)O2)[C@H](C)[C@@H](O[C@@H]2O[C@H](C)C[C@H](N(C)C)[C@H]2O)[C@](C)(O)C[C@@H](C)CN(C)[C@H](C)[C@@H]2OC(=O)O[C@]12C (some centres unmarked) [Example 14, 4″-O-(2-{3-[2-(3-Carboxy-6-fluoro-1-cyclopropyl-8-methoxy-4-oxo-1,4-dihydro-quinolin-7-ylamino)-ethoxy]-propionylamino}-acetyl)-azithromycin 11,12-cyclic carbonate] |
| ≤ 1 | ≤ 1 | ≤ 2 | ≤ 1 | ≤ 2 | ≤ 1 | CC[C@H]1OC(=O)[C@H](C)[C@@H](OC2C[C@@](C)(OC)[C@@H](OC(=O)CCNCCOCCCc3ccc4c(c3)c(=O)c(C(=O)O)cn4CC)[C@H](C)O2)[C@H](C)[C@@H](OC2O[C@H](C)C[C@H](N(C)C)[C@H]2O)[C@](C)(O)C[C@@H](C)CN(C)[C@H](C)[C@@H](OC)[C@]1(C)O (some centres unmarked) [Example 24, 11-O-Methyl-4″-O-(3-{2-[3-(3-Carboxy-1-ethyl-4-oxo-1,4-dihydro-quinolin-6-yl)-propoxy]-ethylamino}-propionyl)-azithromycin] |
| ≤ 1 | ≤ 1 | ≤ 2 | ≤ 1 | ≤ 2 | ≤ 1 | CC[C@H]1OC(=O)[C@H](C)[C@@H](O[C@H]2C[C@@](C)(OC)[C@@H](OC(=O)CCOCCOCCNc3cc4c(=O)c(C(=O)O)cn(C5CC5)c4cc3Cl)[C@H](C)O2)[C@H](C)[C@@H](O[C@@H]2O[C@H](C)C[C@H](N(C)C)[C@H]2O)[C@](C)(OC)C[C@@H](C)C(=O)[C@H](C)[C@H]2NC(=O)O[C@@]21C [Example 26, 4″-O-(3-{2-[2-(3-Carboxy-7-chloro-1-cyclopropyl-4-oxo-1,4-dihydro-quinolin-6-ylamino)-ethoxy]-ethoxy}-propionyl)-6-O-methyl-erythromycin A 11,12-cyclic carbamate] |
| ≤ 1 | ≤ 1 | ≤ 2 | ≤ 1 | ≤ 2 | ≤ 1 | CC[C@H]1OC(=O)[C@H](C)[C@@H](O[C@H]2C[C@@](C)(OC)[C@@H](OC(=O)CCOCCOCCNc3cc4c(cc3F)c(=O)c(C(=O)O)cn4C3CC3)[C@H](C)O2)[C@H](C)[C@@H](O[C@@H]2O[C@H](C)C[C@H](N(C)C)[C@H]2O)[C@](C)(OC)C[C@@H](C)C(=O)[C@H](C)[C@@H](O)[C@]1(C)O [Example 27, 4″-O-(3-{2-[2-(3-Carboxy-6-fluoro-1-cyclopropyl-4-oxo-1,4-dihydro-quinolin-7-ylamino)-ethoxy]-ethoxy}-propionyl)-6-O-methyl-erythromycin A] |
| ≤ 1 | ≤ 1 | ≤ 2 | ≤ 1 | ≤ 2 | ≤ 1 | CC[C@H]1OC(=O)[C@H](C)[C@@H](OC2C[C@@](C)(OC)[C@@H](OC(=O)CCOCCOCCOc3ccc4c(=O)c(C(=O)O)cn(C5CC5)c4c3)[C@H](C)O2)[C@H](C)[C@@H](OC2O[C@H](C)C[C@H](N(C)C)[C@H]2O)[C@](C)(O)C[C@@H](C)CN(C)[C@H](C)[C@@H](O)[C@]1(C)O (some centres unmarked) [Example 35, 4″-O-(3-{2-[2-(3-Carboxy-1-cyclopropyl-4-oxo-1,4-dihydro-quinolin-7-yloxy)-ethoxy]-ethoxy}-propionyl)-azithromycin] |
| ≤ 1 | ≤ 1 | ≤ 2 | ≤ 1 | ≤ 2 | ≤ 1 | CC[C@H]1OC(=O)[C@H](C)[C@@H](OC2C[C@@](C)(OC)[C@@H](OC(=O)CCOCCOCCOc3ccc4c(=O)c(C(=O)O)cn(C5CC5)c4c3)[C@H](C)O2)[C@H](C)[C@@H](O[C@@H]2O[C@H](C)C[C@H](N(C)C)[C@H]2O)[C@](C)(OC)C[C@@H](C)C(=O)[C@H](C)[C@@H](O)[C@]1(C)O (some centres unmarked) [Example 38, 4″-O-(3-{2-[2-(3-Carboxy-1-cyclopropyl-4-oxo-1,4-dihydro-quinolin-7-yloxy)-ethoxy]-ethoxy}-propionyl)-6-O-methyl-erythromycin A] |
| ≤ 1 | ≤ 1 | ≤ 2 | ≤ 1 | ≤ 2 | ≤ 1 | CC[C@H]1OC(=O)[C@H](C)[C@@H](O[C@H]2C[C@@](C)(OC)[C@@H](OC(=O)CCOCCOCCNc3cc4c(=O)c(C(=O)O)cn(C5CC5)c4cc3N(C)C)[C@H](C)O2)[C@H](C)[C@@H](OC2O[C@H](C)C[C@H](N(C)C)[C@H]2O)[C@](C)(O)C[C@@H](C)CN(C)[C@H](C)[C@@H](O)[C@]1(C)O (some centres unmarked) [Example 48, 4″-O-(3-{2-[2-(3-Carboxy-1-cyclopropyl-7-dimethylamino-4-oxo-1,4-dihydro-quinolin-6-ylamino)-ethoxy]-ethoxy}-propionyl)azithromycin] |
| ≤ 1 | ≤ 1 | ≤ 2 | ≤ 1 | ≤ 2 | ≤ 1 | CC[C@H]1OC(=O)[C@H](C)[C@@H](O[C@H]2C[C@@](C)(OC)[C@@H](OC(=O)CCNCCOCCOCC#Cc3ccc4c(c3)c(=O)c(C(=O)O)cn4CC)[C@H](C)O2)[C@H](C)[C@@H](O[C@@H]2O[C@H](C)C[C@H](N(C)C)[C@H]2O)[C@](C)(O)C[C@@H](C)CN(C)[C@H](C)[C@@H](O)[C@]1(C)O [Example 62, 4″-O-[3-(2-{2-[3-(3-Carboxy-1-ethyl-4-oxo-1,4-dihydro-quinolin-6-yl)-prop-2-ynyloxy]-ethoxy}-ethylamino)-propionyl]-azithromycin] |

| Compound | MIC [1] [µg/mL] | MIC [2] [µg/mL] | MIC [3] [µg/mL] | MIC [4] [µg/mL] | MIC [5] [µg/mL] | MIC [6] [µg/mL] |
| --- | --- | --- | --- | --- | --- | --- |
| CC[C@H]1OC(=O)[C@H](C)[C@@H](OC2C[C@@](C)(OC)[C@@H](OC(=O)CCNCCOCC#Cc3ccc4c(c3)c(=O)c(C(=O)O)cn4CC)[C@H](C)O2)[C@H](C)[C@@H](OC2O[C@H](C)C[C@H](N(C)C)[C@H]2O)[C@](C)(O)C[C@@H](C)CN(C)[C@H](C)[C@@H](OC)[C@]1(C)O (some centres unmarked) [Example 23, 11-O-Methyl-4″-O-(3-{2-[3-(3-Carboxy-1-ethyl-4-oxo-1,4-dihydro-quinolin-6-yl)-prop-2-ynyloxy]-ethylamino}-propionyl)-azithromycin] | ≤ 1 | ≤ 1 | ≤ 2 | ≤ 1 | ≤ 2 | ≤ 1 |
| CC[C@H]1OC(=O)[C@H](C)[C@@H](OC2C[C@@](C)(OC)[C@@H](OC(=O)CCNCCOCC#Cc3ccc4c(c3)c(=O)c(C(=O)O)cn4CC)[C@H](C)O2)[C@H](C)[C@@H](OC2O[C@H](C)C[C@H](N(C)C)[C@H]2O)[C@](C)(OC)C[C@@H](C)C(=O)[C@H](C)[C@@H](O)[C@]1(C)O (some centres unmarked) [Example 36, 4″-O-(3-{2-[3-(3-carboxy-1-ethyl-4-oxo-1,4-dihydro-quinolin-6-yl)-prop-2-ynyloxy]-ethylamino}-propionyl)-6-O-methyl-erythromycin A] | ≤ 1 | ≤ 1 | ≤ 2 | ≤ 1 | ≤ 2 | ≤ 1 |
